Values after ≈ are worked out from the molar mass of the structure shown.
Legend:
p38 MAP-kinase = p38 MAP-kinase (Homo sapiens, UniProt Q16539); assay: p38 MAP-kinase enzymatic assay (phosphorylation of GST-tagged ATF2, chemoluminescence); assay type: biochemical; details: inhibitor concentration 1 μM; activated p38 MAP-kinase 1 nM; ATP 100 μM; read-out: p38 (% Inh @ 1 μM)
In short: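 Activated p38 MAP-kinase (1 nM) preincubated 4 h at ambient temperature with 1 μM compound in HEPES pH 7, MgCl2, DTT, TWEEN20, then reacted 1 h with 10 nM GST-ATF2 and 100 μM ATP. Phospho-ATF2 detected by AlphaScreen-type bead luminescence; percent inhibition at 1 μM versus uninhibited and kinase-free controls.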

cytochrome P450 2C9 = cytochrome P450 2C9 (Homo sapiens, UniProt P11712); assay: Determining the cyp2C9 activity (O-demethylation of [O-methyl-14C]-naproxen); assay type: in vitro ADME; details: human recombinant cytochrome P450 2C9; 37° C.; <0.4 μM when inhibition >50% at lowest concentration; read-out: CYP 2C9 IC50
In short: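 Recombinant CYP2C9 (40 pmol/ml) with 80 μM [O-methyl-14C]-naproxen in 0.1 M Tris, 5 mM MgCl2; test compound at 50, 10, 2 and 0.4 μM in duplicate. Started with 1 mM NADPH, stopped after 15 min with TCA; 14C-formaldehyde separated by solid-phase extraction and counted by scintillation. IC50 from least-squares fit.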

[1] = Determining the solubility (saturated solution in McIlvaine buffer pH 7.4, UV spectroscopy); assay type: physicochemical; details: pH 7.4, aqueous buffer, thermodynamic from solid, shaken 2 hours, 0.75 mg solid in 0.75 ml
In short: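 Excess solid (0.75 mg per 0.75 ml) shaken 2 h in McIlvaine buffer pH 7.4, then filtered through 0.45 μm PTFE membrane with first drops discarded. Dissolved amount measured by UV spectroscopy.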

Sequence of cytochrome P450 2C9 (P11712 whole entry): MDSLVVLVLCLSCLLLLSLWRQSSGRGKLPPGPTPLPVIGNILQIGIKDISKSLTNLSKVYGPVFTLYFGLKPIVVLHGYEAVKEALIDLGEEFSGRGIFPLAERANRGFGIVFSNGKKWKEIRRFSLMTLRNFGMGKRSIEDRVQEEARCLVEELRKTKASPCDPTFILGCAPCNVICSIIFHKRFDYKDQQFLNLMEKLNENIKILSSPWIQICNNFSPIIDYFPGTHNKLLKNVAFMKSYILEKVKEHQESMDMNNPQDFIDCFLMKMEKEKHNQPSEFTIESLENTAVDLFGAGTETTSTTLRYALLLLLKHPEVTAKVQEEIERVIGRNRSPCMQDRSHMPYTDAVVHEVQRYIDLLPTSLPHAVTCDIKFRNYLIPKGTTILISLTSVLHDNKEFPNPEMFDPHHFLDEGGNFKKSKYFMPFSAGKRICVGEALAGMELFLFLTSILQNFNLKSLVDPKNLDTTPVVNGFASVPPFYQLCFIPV
Sequence of p38 MAP-kinase (Q16539 whole entry): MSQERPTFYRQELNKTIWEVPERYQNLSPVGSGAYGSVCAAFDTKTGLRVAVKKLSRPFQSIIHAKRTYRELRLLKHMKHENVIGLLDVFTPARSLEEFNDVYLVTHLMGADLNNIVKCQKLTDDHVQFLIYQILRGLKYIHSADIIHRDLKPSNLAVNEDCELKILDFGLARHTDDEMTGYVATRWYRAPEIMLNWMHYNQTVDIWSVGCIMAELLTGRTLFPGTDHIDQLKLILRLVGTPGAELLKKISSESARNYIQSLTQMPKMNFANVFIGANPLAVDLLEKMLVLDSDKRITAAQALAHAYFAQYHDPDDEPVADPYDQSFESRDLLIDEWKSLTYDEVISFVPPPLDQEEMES

Compound	inhibition at 1 µM (p38 MAP-kinase) [%]	IC50 (cytochrome P450 2C9) [nM]	solubility at 2 h [1] [µg/mL]
COc1c(NC(=O)c2cc3cccc(CN4CCCN(C(=O)[C@@H]5CCCN5C)CC4)c3n2C)cc(C(C)(C)C)cc1NS(C)(=O)=O [Example 8, 1-methyl-7-[4-((2S)-1-methyl-pyrrolidine-2-carbonyl)-[1,4]diazepan-1-ylmethyl]-1H-indole-2-carboxylic acid-(5-tert-butyl-3-methanesulphonylamino-2-methoxy-phenyl)-amide]	97.3	1670	280 (≈ 429 µM)
COc1c(CN2CCN(C)CC2)cc(C(C)(C)C)cc1NC(=O)c1cc2cccc(CN3CCN(C(=O)[C@@H]4CCCN4C)CC3)c2n1C [Example 9, (S)-1-methyl-7-[4-(1-methyl-pyrrolidine-2-carbonyl)-piperazin-1-ylmethyl]-1H-indole-2-carboxylic acid-[5-tert-butyl-2-methoxy-3-(4-methyl-piperazin-1-ylmethyl)-phenyl]-amide]	98.8	11000	> 1000
COc1c(NC(=O)c2cc3cccc(CN4CCN(C(=O)[C@@H]5CCCN5C)CC4)c3n2C)cc(C(C)(C)C)cc1C(=O)NC1CC1 [Example 10, (S)-1-methyl-7-[4-(1-methyl-pyrrolidine-2-carbonyl)-piperazin-1-ylmethyl]-1H-indole-2-carboxylic acid-(5-tert-butyl-3-cyclopropylcarbamoyl-2-methoxy-phenyl)-amide]	99.1	1320	420 (≈ 668 µM)
COc1c(NC(=O)c2cc3cccc(CN4CCN(C(=O)[C@@H]5CCCN5C)CC4)c3n2C)cc(C(C)(C)C)cc1C(=O)N(C)C [Example 11, (S)-1-methyl-7-[4-(1-methyl-pyrrolidine-2-carbonyl)-piperazin-1-ylmethyl]-1H-indole-2-carboxylic acid-(5-tert-butyl-3-dimethylcarbamoyl-2-methoxy-phenyl)-amide]	92	5900	450 (≈ 730 µM)
CCC(=O)Nc1cc(C(C)(C)C)cc(NC(=O)c2cc3cccc(CN4CCN(C(=O)[C@@H]5CCCN5C)CC4)c3n2C)c1OC [Example 12, (S)-1-methyl-7-[4-(1-methyl-pyrrolidine-2-carbonyl)-piperazin-1-ylmethyl]-1H-indole-2-carboxylic acid-(5-tert-butyl-2-methoxy-3-propionylamino-phenyl)-amide]	97.9	500	660 (≈ 1070 µM)
CCCS(=O)(=O)Nc1cc(C(C)(C)C)cc(NC(=O)c2cc3cccc(CN4CCN(C(=O)[C@@H]5CCCN5C)CC4)c3n2C)c1OC [Example 13, (S)-1-methyl-7-[4-(1-methyl-pyrrolidine-2-carbonyl)-piperazin-1-ylmethyl]-1H-indole-2-carboxylic acid-[5-tert-butyl-2-methoxy-3-(propane-1-sulphonylamino)-phenyl]-amide]	99.1	500	17 (≈ 25.5 µM)
COc1c(NC(=O)c2cc3cccc(CN4CCN(C(=O)[C@@H]5CCCN5C)CC4)c3n2C)cc(C(F)(F)C(F)(F)F)cc1NS(C)(=O)=O [Example 14, (S)-1-methyl-7-[4-(1-methyl-pyrrolidine-2-carbonyl)-piperazin-1-ylmethyl]-1H-indole-2-carboxylic acid-(3-methanesulphonylamino-2-methoxy-5-pentafluoroethyl-phenyl)-amide]	98.8	1430	27 (≈ 38.5 µM)
COc1c(CO)cc(C(C)(C)C)cc1NC(=O)c1cc2cccc(CN3CCN(C(=O)[C@@H]4CCCN4C)CC3)c2n1C [Example 15, (S)-1-methyl-7-[4-(1-methyl-pyrrolidine-2-carbonyl)-piperazin-1-ylmethyl]-1H-indole-2-carboxylic acid-(5-tert-butyl-3-hydroxymethyl-2-methoxy-phenyl)-amide]	99.4	2540	230 (≈ 399 µM)
COc1c(NC(=O)c2cc3cccc(CN4CCN(C(=O)CC5CC5)CC4)c3n2C)cc(C(C)(C)C)cc1NS(C)(=O)=O [Va, reference compound]	98.8	< 400	< 1
COc1c(NC(=O)c2cc3cccc(CN4CCN(C(=O)C5(C)CC5)CC4)c3n2C)cc(C(C)(C)C)cc1NS(C)(=O)=O [Vb, reference compound]	99.1	< 400	< 1
COc1c(NC(=O)c2cc3cccc(CN4CCN(C(=O)C5CC5)CC4)c3n2C)cc(C(C)(C)C)cc1NS(C)(=O)=O [Vc, reference compound]	99.1	< 400	< 1

— US8686022B2, “7-(piperazine-1-ymethyl)-1H-indole-2-carboxylic acid (phenyl)-amide derivatives and allied compounds as p38 MAP kinase inhibitors for the treatment of respiratory diseases” (Boehringer Ingelheim International GmbH, priority 2008, dated 2014)
